Data taken from article PMC7369900 (International Journal of Molecular Sciences, 2020).
In brackets after ≈: the same amount, converted by molar mass. Read-outs that look alike come from different tables or passages of the source.

Experiments:
E. coli ATCC 25922 = assay: microbe, parasite or virus in culture; assay type: cell-based, Escherichia coli; conditions: E. coli ATCC 25922, MHB
Experimental: (§1) The antibacterial activity of TP10-NH2-based conjugates, as well as its constituents, was evaluated by microdilution assay in Mueller Hinton broth, MHB (Table 1). […] There are, however, some exceptions. […] Its activity against two other tested bacteria was somewhat lower though.
(§2) The antibacterial activity (bacteriostatic: MIC and bactericidal: MBC) of the tested compounds was determined in MHB (Mueller Hinton Broth, Sigma Aldrich, St. Louis, MO, USA) using a serial two-fold dilution method in 96-well microtiter plates according to CLSI recommendations, described in M07-A10 document. The exact conditions have been described previously. All experiments were performed in three replicates. The MIC90 and MIC50 values were defined as the concentrations of compounds tested that caused a 90% or 50% reduction of growth, respectively, comparing to the drug-free control.

[1] = tested on: C. albicans Δopt1Δopt5Δptr2Δptr22
Hep G2 = assay: cells; assay type: cell-based, human; conditions: Hep G2, 72 h, MTT
Experimental: (§3) Among the conjugates, LVXC-S-S-CTP10-NH2 (5) was the least cytotoxic. […] In the case of HEK 293 and LLC-PK1 cells, the IC50 values of 5 were nearly four times higher. […] Additionally, we noted that the cancer cells Hep G2 were less sensitive to the action of the given compounds than the non-cancer cells (HEK 293 and LLC-PK1).
(§4) Cytotoxicity was assessed against three mammalian cell lines: LLC-PK1, Hep G2, and HEK 293. Multiwell (96–well) plates were seeded at 7000 cells/well in Medium 199 supplemented with 7.5% FBS, MEM Eagle’s medium supplemented with 10% FBS, or DMEM medium supplemented with 10% FBS, respectively. All media were supplemented with L-glutamine and antibiotics (penicillin/streptomycin). Cells were allowed to attach overnight. Drugs were dissolved in cell culture medium and added to wells in 100-µL aliquots of 2× concentrated solutions, in triplicates. To control wells, 100 µL of the medium were added. Cells were incubated with the studied compounds for 72 h at 37 °C and 95%/5% or 90%/10% (HEK 293 cells) CO2 atmosphere. Then, 20-µL aliquots of MTT solution in PBS (4 mg/mL) were added to all wells and plates were incubated further for 3 h in 37 °C. Formazan crystals formed were dissolved in 100 µL of DMSO and the absorbance of the solutions was measured using a multiwell plate reader (Spark, Tecan, Männedorf, Switzerland) at λ = 540 nm. Cytotoxicity was determined compared to the drug-free control. All experiments were performed in triplicates.

HEK 293 [2] = assay: cells; assay type: cell-based, human; conditions: HEK 293, 72 h, MTT
Experimental: as §3, §4

[3] = tested on: Staphylococcus aureus ATCC 25,923; design: method as in PMID 25891396; conditions: cited from earlier work
human red blood cells = assay: Hemolysis assay; conditions: 1 h, 37 °C
S. aureus ATCC 29213 = assay: microbe, parasite or virus in culture; assay type: cell-based, Staphylococcus aureus; conditions: S. aureus ATCC 29213, MHB
Experimental: as §1, §2

[4] = tested on: yeasts of the Candida genus
HL-60 = assay: ROS generation (CM-H2DCFDA, flow cytometry); assay type: cell-based, human; conditions: positive cells in 24 h, class
Experimental: (§5) In the positive controls treated with H2O2, the fraction of ROS-positive cells exceeded 75%. […] Strikingly, in HL-60, a biologically significant effect was observed almost immediately (after 15 min of incubation). The same was noted after 1 h in the HEK 293 cell line. […] Similarly, conjugates 4 and 5 generated ROS at the low level (less than 15% for HL-60 and less than 20% for HEK 293) (manuscript in preparation). […] For HL-60, the critical level of ROS was noted after 15 min of incubation.
(§6) ROS generation activity was evaluated as described previously. Briefly, HEK 293 cells were seeded on 35-mm Petri dishes in the amount of 15,000 cells per plate for 24 h in DMEM medium. […] Positive controls contained 250 µM H2O2, while negative controls were without any additions. After 0.5, 2.5, 5.5, and 24 h of incubation at 37 °C, the CM-H2DCFDA molecular probe (Thermo Fischer Scientific, Waltham, USA) was added to the plates and incubation was continued for another 0.5 h. The HEK 293 cells were detached with 0.05% trypsin solution in PBS and HBSS (Hank’s Balanced Salt Solution) and suspended in fresh DMEM medium. All samples were additionally stained with 7-AAD (7-aminoactinomycin D, 0.8 µg/mL) and immediately analysed with a Guava easyCyte flow cytometer (Merc, Burlington, USA). The determinations were performed in triplicates.

HEK 293 [5] = assay: ROS generation (CM-H2DCFDA, flow cytometry); assay type: cell-based, human; conditions: positive cells in 24 h, class
Experimental: as §5, §6

E. coli ATCC 25,922 = tested on: E. coli ATCC 25,922; design: method as in PMID 25891396; conditions: cited from earlier work
[6] = target: T1, yeast DNA topoisomerase II (Saccharomyces cerevisiae, UniProt P06786); assay: biochemical; assay type: biochemical; conditions: pBR322 relaxation, 30 °C, 30 min
T1 construct: purchased Inspiralis (Norwich, UK)
T1 sequence (P06786 whole entry): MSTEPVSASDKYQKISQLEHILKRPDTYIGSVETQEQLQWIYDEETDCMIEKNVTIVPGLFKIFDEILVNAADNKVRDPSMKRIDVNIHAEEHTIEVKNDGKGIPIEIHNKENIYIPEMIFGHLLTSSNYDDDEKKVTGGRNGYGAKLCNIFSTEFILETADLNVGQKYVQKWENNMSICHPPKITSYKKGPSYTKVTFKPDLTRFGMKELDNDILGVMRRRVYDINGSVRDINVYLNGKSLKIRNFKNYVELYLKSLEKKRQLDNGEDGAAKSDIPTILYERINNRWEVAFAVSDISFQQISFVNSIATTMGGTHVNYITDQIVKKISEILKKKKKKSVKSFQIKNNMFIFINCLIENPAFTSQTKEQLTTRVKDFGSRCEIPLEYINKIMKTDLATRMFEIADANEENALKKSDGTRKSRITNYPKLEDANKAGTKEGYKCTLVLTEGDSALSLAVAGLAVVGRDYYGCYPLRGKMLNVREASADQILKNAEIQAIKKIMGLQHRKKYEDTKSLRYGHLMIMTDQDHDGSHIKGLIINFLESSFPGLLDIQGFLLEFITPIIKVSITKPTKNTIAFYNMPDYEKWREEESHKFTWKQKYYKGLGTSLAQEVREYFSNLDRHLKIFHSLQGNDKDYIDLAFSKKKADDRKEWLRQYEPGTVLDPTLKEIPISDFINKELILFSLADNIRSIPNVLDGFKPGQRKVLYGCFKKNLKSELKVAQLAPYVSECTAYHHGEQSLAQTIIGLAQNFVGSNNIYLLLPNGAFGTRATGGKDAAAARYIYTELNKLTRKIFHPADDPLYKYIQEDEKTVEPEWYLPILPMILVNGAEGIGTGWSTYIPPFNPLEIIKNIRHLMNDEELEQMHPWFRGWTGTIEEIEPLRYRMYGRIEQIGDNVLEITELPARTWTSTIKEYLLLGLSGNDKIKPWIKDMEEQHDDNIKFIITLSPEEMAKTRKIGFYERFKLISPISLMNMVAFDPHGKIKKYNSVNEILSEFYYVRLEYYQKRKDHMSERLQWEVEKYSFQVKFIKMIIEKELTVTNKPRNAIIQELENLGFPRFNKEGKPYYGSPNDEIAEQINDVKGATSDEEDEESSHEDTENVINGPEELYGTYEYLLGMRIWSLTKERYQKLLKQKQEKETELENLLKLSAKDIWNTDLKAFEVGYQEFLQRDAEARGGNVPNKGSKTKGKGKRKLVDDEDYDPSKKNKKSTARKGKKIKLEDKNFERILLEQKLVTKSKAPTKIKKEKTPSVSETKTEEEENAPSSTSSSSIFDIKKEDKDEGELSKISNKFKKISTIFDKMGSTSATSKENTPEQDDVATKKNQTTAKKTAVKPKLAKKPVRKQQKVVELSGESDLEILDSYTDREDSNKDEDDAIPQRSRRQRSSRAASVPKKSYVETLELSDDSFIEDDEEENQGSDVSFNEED

[7] = tested on: S. aureus ATCC 25,923 cells; assay: Stability inside bacterial cells (LC-MS of cell lysate)
[8] = tested on: S. epidermidis ATCC 12228; assay: microbe, parasite or virus in culture; assay type: cell-based, Staphylococcus epidermidis; conditions: S. epidermidis ATCC 12228, MHB
Experimental: as §1, §2

bacteria = assay: Influence of salts: antibacterial activity in MHB2 compared to MHB; assay type: cell-based; conditions: MHB2: Ca(II) 20–25 mg/L, Mg(II) 10–12.5 mg/L
Experimental: Additionally, for selected compounds, the aspect of the influence of salts present in the medium on antimicrobial activity was evaluated. […] In the salt-enriched medium, the MIC values determined for TP10-NH2 were up to 40-fold higher than those found in MHB. The phenomenon of reduction of the growth inhibitory activity of antimicrobial peptides at a high salt concentration was previously evidenced by other researchers. It may cause severe limitations for AMPs’ usage as therapeutic agents because of the risk of potential inactivation by salts present in the human body.

P. aeruginosa ATCC 27853 = assay: microbe, parasite or virus in culture; assay type: cell-based, Pseudomonas aeruginosa
Experimental: as §1, §2

LLC-PK1 = assay: cells; assay type: cell-based, pig; conditions: LLC-PK1, 72 h, MTT
Experimental: as §3, §4

SMILES: CC[C@H](C)[C@H](NC(=O)[C@H](CCCCN)NC(=O)[C@H](CCCCN)NC(=O)[C@H](C)NC(=O)[C@H](CC(C)C)NC(=O)[C@H](C)NC(=O)[C@H](C)NC(=O)[C@H](CC(C)C)NC(=O)[C@H](C)NC(=O)[C@H](CCCCN)NC(=O)[C@H](CC(C)C)NC(=O)[C@H](CC(N)=O)NC(=O)[C@@H](NC(=O)[C@H](CCCCN)NC(=O)CNC(=O)[C@H](CC(C)C)NC(=O)[C@H](CC(C)C)NC(=O)[C@H](Cc1ccc(O)cc1)NC(=O)CNC(=O)[C@H](C)N)[C@@H](C)CC)C(=O)N[C@@H](CC(C)C)C(N)=O [TP10-NH2, transportan 10, reference compound]
- MIC50 (C. glabrata DSM 11226): >200 µM
- MIC50 (E. coli ATCC 25922): 1.6 µM (≈ 3.49 µg/mL)
- MIC90 (E. coli ATCC 25922): 1.6 µM (≈ 3.49 µg/mL)
- MIC50 [1]: 100 µM (≈ 218 µg/mL)
- MIC90 [1]: 100 µM (≈ 218 µg/mL)
- IC50 (Hep G2): 32.1 ± 1.65 µM
- IC50 (HEK 293 [2]): 25.1 ± 0.86 µM
- MIC ([3]; Staphylococcus aureus ATCC 25,923, converted from μg/mL): ~ 7 μM
- MIC ([3]; Staphylococcus aureus ATCC 25,923): 16 µg/mL (≈ 7.33 µM)
- MHC50 (concentration causing 50% hemolysis) (human red blood cells): ~200 µg/mL
- MHC50 (concentration causing 50% hemolysis) (human red blood cells; converted from μg/mL): ~ 92 μM
- MIC50 (S. aureus ATCC 29213): 3.125 µM (≈ 6.82 µg/mL)
- MIC90 (S. aureus ATCC 29213): 3.125 µM (≈ 6.82 µg/mL)
- MIC50 (C. albicans Gu4): 100 µM (≈ 218 µg/mL)
- MIC against C. albicans [4]: 100 µM (≈ 218 µg/mL)
- MIC50 (C. krusei DSM 6128): >200 µM
- ROS HL-60 (HL-60): ++ (++ <10% positive cells in 24 h)
- ROS HEK 293 (HEK 293 [5]): ++ (++ <10% positive cells in 24 h)
- MIC (E. coli ATCC 25,922; E. coli ATCC 25,922, converted from μg/mL): ~ 7 μM
- MIC (E. coli ATCC 25,922; E. coli ATCC 25,922): 16 µg/mL (≈ 7.33 µM)
- Concentration of complete inhibition of topoisomerase II activity [6]: 50 µM
- Stability inside bacterial cells [7]: resistant inside the bacterial cells
- MIC50 [8]: 1.6 µM (≈ 3.49 µg/mL)
- MIC90 [8]: 1.6 µM (≈ 3.49 µg/mL)
- Influence of salts (MHB2 vs MHB) on antibacterial activity (bacteria): strongly affected
- MIC in salt-enriched medium (MHB2) relative to MHB (bacteria): up to 40 fold
- MIC50 (P. aeruginosa ATCC 27853; P. aeruginosa ATCC 27853, MHB): >100 µM
- MIC90 (P. aeruginosa ATCC 27853; P. aeruginosa ATCC 27853, MHB): >100 µM
- MIC (P. aeruginosa ATCC 27853; Pseudomonas aeruginosa, MHB): > 100 µM
- IC50 (LLC-PK1): 22.7 ± 5.65 µM
- MIC50 (C. albicans SC 5314): 100 µM (≈ 218 µg/mL)
- MIC90 (C. albicans SC 5314): 100 µM (≈ 218 µg/mL)
